In patent US20250109127A1, “METHODS OF USE OF PHENOXYPROPYLAMINE COMPOUNDS TO TREAT DEPRESSION” (Minerva Neurosciences, Inc., priority 2013, published 2025):
Values joined by “and” are separate entries in the source; they are usually repeats but may differ in a detail not shown here. Equal entries are not always repeated.

System: norepinephrin release in the rat prefrontal cortex
Experiment: Microdialysis: norepinephrine release in prefrontal cortex after I.P. administration
Type: in vivo
Details: for NOREPINEPHRIN in dialysate, MEAN / NOREPINEPHRIN in dialysate, individual animals: Citalopram 10 mg/kg I.P.
Experimental: The aim of the study was to evaluate, using microdialysis, the effects of an intraperitoneal (I.P.) administration in rats of three different doses of SON-117 on dopamine and its metabolites, serotonin and its metabolite (5-HIAA), and norepinephrine levels in prefrontal cortex.
Thirty-two adult male Wistar rats were used for the whole study (4 groups of eight animals planned for the study, Table 1).
Surgery was performed on rats weighing about 300 g at the beginning of the experiments. Rats were anaesthetized with Ketamine (50 mg/kg) & Xylazine (15 mg/kg) by intramuscular administration. The animals were placed in a stereotaxic apparatus in the flat-skull position at a constant setting of −3.3 mm between ear bars and the incisor bar. The animals were treated with a local anesthesic (xylocaine 1%, Astra Zeneca) and an analgesic (Temgesic, from Schering Plough, 0.05 mg/kg, s.c.). A rostrocaudal midline incision was made with a lancet to expose the dorsal skull surface. The “stereotaxic zero” was defined by the Bregma in accordance with Paxinos and Watson's atlas (1986). A hole was drilled in the skull with a drill and the meninges were pierced with a sterile needle to implant a CMA12 guide cannula which later received the dialysis probe.
Coordinates used for implanting guide cannula in prefrontal cortex from Bregma were anteroposterior 3.7 mm, mediolateral 0.8 mm, and dorsoventral −2 mm (top of the probe was at −5 mm). The guide cannula was fixed to the skull with two stainless steel screws (1.88 mm outside diameter) anchored. An application of dental cement was added. A plastic collar allowed each animal to be tethered to a Swivel assembly of the CMA 120 awake animal system. Following surgery, rats were kept in individual cages and allowed to recover for a minimum of 3-5 days before the experimentation. The rats were handled and put in plastic bowl for 10 min at least every day to habituate the animals to their new environment for the dialysis. An I.P. administration with saline was also performed every day.
Dialysis probes (CMA12/3 mm, membrane, 20 kD cut-off, Carnegie Medicine, Stockholm, Sweden), were carefully washed before inserting into the guide cannula. The wash was performed with the artificial cerebrospinal fluid (aCSF) medium (NaCl 147 mM, KCl 2.7 mM, CaCl2 1.2 mM, MgCl2 0.85 mM) at room temperature. The dialysis system was then equilibrated at 20° C. at a perfusion rate of 1 μl/min with a Carnegie pump (CMA100). All catheters (FEP tubing, internal volume of 1.2 μl/10 cm, and tubing adaptors) used for microdialysis were treated in the same conditions.
The probes duly prepared were inserted into the guide cannula and the CMA120 Swivel assembly secured to the animal using a plastic collar. Flow through the dialysis probe with aCSF was maintained at a rate of 1 μl/min during the whole experimentation. The first four fractions (corresponding to 2 hours) were discarded to avoid the effects of parenchymal disturbance and to ensure that an approximate steady-state level was reached. Fractions were then collected over a period of 8.5 h during which time the animals remained quiet. The dialysates were automatically collected with an autosampler (microfraction collector CMA 140, Carnegie Medicin) and stored at −80° C. until analysis. […] Perfusion was then maintained for 7 hours with aCSF. The dialysates (30 μl) were collected into 300 μl vials, transferred into dry ice and then kept frozen (−80° C.) until analysis. Frozen samples were shipped to a partner for analysis. At the end of the microdialysis study, a PBS with colored ink was perfused through the probe in order to visualize the dialyzed area.
Catecholamine assay: Concentrations of dopamine, DOPAC, HVA, 5-HIAA, 5-HT, and norepinephrin were determined for each sample by HPLC coupled with electrochemical detection. […]

## CN(C)CCCC1(c2ccc(F)cc2)OCc2cc(C#N)ccc21 (stereo not shown) [Citalopram, citalopram, reference compound]
T0-T30 min
  NOREPINEPHRIN in dialysate, MEAN: 82.58 % of respective basal
T30-T1 h
  NOREPINEPHRIN in dialysate, MEAN: 78.71 % of respective basal
  NOREPINEPHRIN in dialysate, individual animals: 63.38 % of respective basal and 110.18 % of respective basal and 80.74 % of respective basal and 67.88 % of respective basal and 82.89 % of respective basal and 87.03 % of respective basal and 121.77 % of respective basal and 15.77 % of respective basal
T1 h 30-T2 h
  NOREPINEPHRIN in dialysate, MEAN: 79.06 % of respective basal
  NOREPINEPHRIN in dialysate, individual animals: 61.03 % of respective basal and 124.09 % of respective basal and 72.92 % of respective basal and 60.40 % of respective basal and 82.59 % of respective basal and 82.64 % of respective basal and 134.98 % of respective basal and 13.8 % of respective basal
T1 h-T1 h 30
  NOREPINEPHRIN in dialysate, MEAN: 79.69 % of respective basal
  NOREPINEPHRIN in dialysate, individual animals: 76.17 % of respective basal and 109.19 % of respective basal and 82.90 % of respective basal and 61.59 % of respective basal and 83.93 % of respective basal and 87.19 % of respective basal and 123.99 % of respective basal and 12.53 % of respective basal
T2 h 30-T3 h
  NOREPINEPHRIN in dialysate, MEAN: 71.56 % of respective basal
  NOREPINEPHRIN in dialysate, individual animals: 59.14 % of respective basal and 93.64 % of respective basal and 64.43 % of respective basal and 55.24 % of respective basal and 91.72 % of respective basal and 74.05 % of respective basal and 121.10 % of respective basal and 13.15 % of respective basal
T2 h-T2 h 30
  NOREPINEPHRIN in dialysate, MEAN: 76.38 % of respective basal
  NOREPINEPHRIN in dialysate, individual animals: 73.97 % of respective basal and 105.30 % of respective basal and 76.17 % of respective basal and 58.36 % of respective basal and 86.59 % of respective basal and 74.01 % of respective basal and 122.28 % of respective basal and 14.33 % of respective basal
T3 h 30-T4 h
  NOREPINEPHRIN in dialysate, MEAN: 75.03 % of respective basal
  NOREPINEPHRIN in dialysate, individual animals: 60.36 % of respective basal and 105.62 % of respective basal and 79.83 % of respective basal and 62.35 % of respective basal and 87.18 % of respective basal and 69.08 % of respective basal and 122.62 % of respective basal and 13.22 % of respective basal
T3 h-T3 h 30
  NOREPINEPHRIN in dialysate, MEAN: 71.85 % of respective basal
  NOREPINEPHRIN in dialysate, individual animals: 59.65 % of respective basal and 96.31 % of respective basal and 77.47 % of respective basal and 56.34 % of respective basal and 86.44 % of respective basal and 66.43 % of respective basal and 119.71 % of respective basal and 12.42 % of respective basal
T4 h 30-T5 h
  NOREPINEPHRIN in dialysate, MEAN: 79.44 % of respective basal
  NOREPINEPHRIN in dialysate, individual animals: 76.82 % of respective basal and 116.23 % of respective basal and 73.73 % of respective basal and 66.68 % of respective basal and 84.54 % of respective basal and 70.81 % of respective basal and 127.26 % of respective basal and 19.47 % of respective basal
T4 h-T4 h 30
  NOREPINEPHRIN in dialysate, MEAN: 79.54 % of respective basal
  NOREPINEPHRIN in dialysate, individual animals: 77.6 % of respective basal and 102.09 % of respective basal and 77.48 % of respective basal and 63.90 % of respective basal and 92.86 % of respective basal and 82.33 % of respective basal and 128.7 % of respective basal and 11.39 % of respective basal
T5 h 30-T6 h
  NOREPINEPHRIN in dialysate, MEAN: 81.93 % of respective basal
  NOREPINEPHRIN in dialysate, individual animals: 48.16 % of respective basal and 103.46 % of respective basal and 105.10 % of respective basal and 86.55 % of respective basal and 85.91 % of respective basal and 79.07 % of respective basal and 122.12 % of respective basal and 25.1 % of respective basal
T5 h-T5 h 30
  NOREPINEPHRIN in dialysate, MEAN: 77.65 % of respective basal
  NOREPINEPHRIN in dialysate, individual animals: 88.27 % of respective basal and 76.54 % of respective basal and 75.84 % of respective basal and 77.15 % of respective basal and 75.13 % of respective basal and 134.83 % of respective basal and 15.76 % of respective basal
T6 h 30-T7 h
  NOREPINEPHRIN in dialysate, MEAN: 79.84 % of respective basal
  NOREPINEPHRIN in dialysate, individual animals: 52.47 % of respective basal and 107.42 % of respective basal and 80.22 % of respective basal and 89.35 % of respective basal and 83.18 % of respective basal
T6 h-T6 h 30
  NOREPINEPHRIN in dialysate, MEAN: 78.38 % of respective basal
  NOREPINEPHRIN in dialysate, individual animals: 51.36 % of respective basal and 106.33 % of respective basal and 79.91 % of respective basal and 87.03 % of respective basal and 82.07 % of respective basal and 79.77 % of respective basal and 119.62 % of respective basal and 20.91 % of respective basal
T-30 min-T0 (pre-dose)
  NOREPINEPHRIN in dialysate, MEAN: 95.22 % of respective basal
T-1 h 30-T-1 h (pre-dose)
  NOREPINEPHRIN in dialysate, MEAN: 92.87 % of respective basal
T-1 h-T-30 min (pre-dose)
  NOREPINEPHRIN in dialysate, MEAN: 109.53 % of respective basal
Citalopram 10 mg/kg I.P., from 0.5 h to 7 h after administration
  NE concentration in prefrontal cortex, significant and stable slight decrease: 72%
